“Also recorded” adds a separate entry of the source. Read-outs that look alike come from different tables or passages of the source.
Tests used:
L1 = target: T1, L1 (Stenotrophomonas maltophilia, UniProt P52700); assay: In vitro inhibition assay, IPM hydrolysis by L1; type: biochemical; settings: even in the presence of 100 μM SFC
T1 construct: made in house
Procedure: (§1) MBL (10 nM) was mixed with the inhibitors and incubated for 5 min at 30°C. IPM was added to reach a concentration of 150 μM, and the velocity of IPM hydrolysis was monitored at 298 nm. The assay was performed at 30°C using 10 mM HEPES (pH 7.5) buffer containing 200 mM NaCl and 50 μg/ml bovine serum albumin (BSA) for IMP-1, NDM-1, VIM-2, and SMB-1. For SFH-1 and L1, another 10 mM HEPES (pH 7.5) buffer containing 200 mM NaCl, 20 μM ZnSO4, and 50 μg/ml BSA was used.

SMB-1 = assay: In vitro inhibition assay, IPM hydrolysis by SMB-1; type: biochemical; settings: even in the presence of 100 μM SFC
Procedure: as §1

CMY-2 = target: T2, CMY-2 (Klebsiella pneumoniae, UniProt Q48434); assay: Serine β-lactamase inhibition, nitrocefin hydrolysis by CMY-2; type: biochemical; settings: nitrocefin 100 μM
T2 construct: made in house; host or cells: E. coli BL21(DE3)
Procedure: (§2) The serine–β-lactamases (1 nM) TLA-3, CMY-2, and OXA-48 were mixed with SFC in 100 mM phosphate buffer (pH 7.0) and incubated for 5 min at 30°C. Nitrocefin was added to reach a concentration of 100 μM, and the velocity of nitrocefin hydrolysis was monitored at 482 nm. Avibactam (MedKoo Bioscience, Morrisville, NC) was used as an inhibitor for serine–β-lactamases. The inhibitory effect of SFC against ACE was evaluated using ACE Kit-WST (Dojindo Laboratories, Kumamoto, Japan). The residual ACE activity was calculated as described in the manufacturer’s protocol as follows: [1 − (Acontrol − Asample)/(Acontrol − Abackground)] × 100. EDTA solution (Nippon Gene, Tokyo, Japan) was used as an ACE inhibitor.

[1] = target: T3, angiotensin-converting enzyme (ACE) (Homo sapiens, UniProt P12821); assay: ACE inhibition (ACE Kit-WST); type: biochemical; settings: human metalloenzyme
T3 construct: purchased Dojindo Laboratories ACE Kit-WST
Procedure: as §2

E. coli DH5α/pBC-TMB-2 = assay: Susceptibility testing, TMB-2-producing E. coli; type: cell-based; settings: Escherichia coli
Procedure: (§3) MICs were determined via the microdilution method according to the CLSI guidelines ([38]). In brief, 5 × 10^4 bacterial cells were inoculated in 100 μl of cation-adjusted Mueller-Hinton broth (Becton, Dickinson and Company, Franklin Lakes, NJ) containing the β-lactams and appropriately diluted inhibitors. The final concentration of DMSO was maintained at 2% in the assays. The tested plates were then incubated at 35°C for 16 to 20 h. The MIC value was determined as the lowest concentration of tested β-lactams where no bacterial growth was visibly observed. The optical density at 600 nm (OD600) value was measured using a plate reader for drawing the heat maps. The FIC index value was calculated using the following equation: FIC index=MIC of β-lactam with inhibitor/MIC of β-lactam alone+MIC of inhibitor with β-lactam/MIC of inhibitor alone

[2] = test system: E. coli BL21(DE3)/pET-DIM-1; assay: Susceptibility testing, DIM-1-producing E. coli; type: cell-based; settings: Escherichia coli
Procedure: as §3

[3] = test system: E. coli BL21(DE3)/pET-SIM-1; assay: Susceptibility testing, SIM-1-producing E. coli; type: cell-based; settings: Escherichia coli
Procedure: as §3

[4] = test system: E. coli BL21(DE3)/pET-KHM-1; assay: Susceptibility testing, KHM-1-producing E. coli; type: cell-based; settings: Escherichia coli
Procedure: as §3

[5] = test system: P. aeruginosa PAO1/pME-IMP-1; assay: Susceptibility testing, IMP-1-producing P. aeruginosa PAO1; type: cell-based; settings: Pseudomonas aeruginosa
Procedure: as §3

[6] = test system: P. aeruginosa PAO1/pME-VIM-2; assay: Susceptibility testing, VIM-2-producing P. aeruginosa PAO1; type: cell-based; settings: Pseudomonas aeruginosa
Procedure: as §3

[7] = test system: IMP-type MBL-producing Enterobacteriaceae; assay: Susceptibility testing, 19 IMP-type MBL-producing Enterobacteriaceae isolates; type: cell-based; settings: for Isolates whose MPM MIC decreased to susceptible criteria (MIC ≤1 μg/ml): IMP-producing isolates
Procedure: as §3

[8] = Acute toxicity study in mice; type: in vivo; settings: male, CD1, mouse, in vivo, ip, intraperitoneal (i.p.) single injection, read-out: 50% lethal dose (LD50)
Procedure: (§4) All experiments were approved by the Nagoya University Animal Ethics Committee, and all experiments were performed in a manner that minimized animal suffering. Male CD1 mice (4 weeks old; 20 to 25 g body weight) were purchased from Charles River Laboratories Japan (Yokohama, Japan). E. coli NUBL-24 (blaIMP-1) and K. pneumoniae MS5674 (blaNDM-1 and blaVIM-1) strains were inoculated on LB agar plates and grown for 18 h at 37°C. Bacteria were then scraped from the plates, and their concentration was adjusted to 5 × 10^6 to 1 × 10^7 CFU in saline solution containing 5% mucin; this solution was then i.p. injected into the mice. At 1 and 3 h after infection, saline solution, MPM, inhibitors, and a combination of MPM and inhibitor were i.p. injected. Mice were monitored for 7 days to formulate survival curves, after which they were euthanized by CO2 asphyxiation.
(§5) For acute toxicity studies, mice were i.p. (400 μl/injection) or i.v. (150 μl/injection) administered a single injection of serially diluted SFC. Mortality was then monitored for 7 days.

mice = assay: Acute toxicity study in mice; type: in vivo; settings: intravenous (i.v.) single injection, 7 days
Procedure: as §4, §5

[9] = test system: Salmonella enterica serovar Typhimurium TA98 and TA100, E. coli WP2uvrA; assay: Ames test (reverse mutation assay)
Procedure: Bacterial strains of Salmonella enterica serovar Typhimurium TA98 and TA100 as well as E. coli WP2uvrA were analyzed using the reverse mutation assay, which was performed by UBE Scientific Analysis Laboratory (Tokyo, Japan).

[10] = Human liver microsomal stability test; type: in vitro ADME; settings: 100 nM compound, 0.1 mg protein/ml, 35 min, 37°C
Procedure: Human liver microsomal stability tests were performed by Sumika Chemical Analysis Service (Osaka, Japan). Compounds (100 nM) were incubated with human liver microsomes (0.1 mg protein/ml) for 35 min at 37°C and subjected to liquid chromatography-tandem mass spectrometry (LC-MS/MS) for quantification of the loss of the tested compounds.

[11] = test system: IMP-1-producing E. coli NUBL-24; assay: Mouse infection model, E. coli NUBL-24, survival; type: in vivo, mice
Procedure: as §4

[12] = read-out: MIC of MPM + inhibitor (8 μg/ml)
[13] = read-out: MIC of MPM + inhibitor (32 μg/ml)
[14] = PAO1, read-out: MIC of MPM + inhibitor (10 μg/ml)
[15] = PAO1, read-out: MIC of MPM + inhibitor (50 μg/ml)

T2 sequence (Q48434 21-381, species assumed): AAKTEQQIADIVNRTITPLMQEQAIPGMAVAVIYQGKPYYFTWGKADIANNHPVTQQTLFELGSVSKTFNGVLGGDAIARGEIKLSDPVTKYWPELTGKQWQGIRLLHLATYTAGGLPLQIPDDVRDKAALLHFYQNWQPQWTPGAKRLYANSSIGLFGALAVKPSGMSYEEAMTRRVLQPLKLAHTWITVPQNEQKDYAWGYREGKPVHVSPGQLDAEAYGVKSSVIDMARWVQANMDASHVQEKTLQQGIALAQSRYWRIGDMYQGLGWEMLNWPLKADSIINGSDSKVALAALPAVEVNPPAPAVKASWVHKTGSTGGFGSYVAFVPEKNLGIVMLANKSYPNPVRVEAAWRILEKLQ
T1 sequence (P52700 34-290): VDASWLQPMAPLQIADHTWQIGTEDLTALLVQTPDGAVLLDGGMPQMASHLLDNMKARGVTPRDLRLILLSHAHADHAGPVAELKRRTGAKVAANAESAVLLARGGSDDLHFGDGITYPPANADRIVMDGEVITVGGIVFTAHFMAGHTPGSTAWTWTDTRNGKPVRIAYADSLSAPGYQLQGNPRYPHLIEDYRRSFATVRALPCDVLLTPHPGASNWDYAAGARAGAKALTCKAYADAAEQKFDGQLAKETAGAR
T3 sequence (P12821 30-1306): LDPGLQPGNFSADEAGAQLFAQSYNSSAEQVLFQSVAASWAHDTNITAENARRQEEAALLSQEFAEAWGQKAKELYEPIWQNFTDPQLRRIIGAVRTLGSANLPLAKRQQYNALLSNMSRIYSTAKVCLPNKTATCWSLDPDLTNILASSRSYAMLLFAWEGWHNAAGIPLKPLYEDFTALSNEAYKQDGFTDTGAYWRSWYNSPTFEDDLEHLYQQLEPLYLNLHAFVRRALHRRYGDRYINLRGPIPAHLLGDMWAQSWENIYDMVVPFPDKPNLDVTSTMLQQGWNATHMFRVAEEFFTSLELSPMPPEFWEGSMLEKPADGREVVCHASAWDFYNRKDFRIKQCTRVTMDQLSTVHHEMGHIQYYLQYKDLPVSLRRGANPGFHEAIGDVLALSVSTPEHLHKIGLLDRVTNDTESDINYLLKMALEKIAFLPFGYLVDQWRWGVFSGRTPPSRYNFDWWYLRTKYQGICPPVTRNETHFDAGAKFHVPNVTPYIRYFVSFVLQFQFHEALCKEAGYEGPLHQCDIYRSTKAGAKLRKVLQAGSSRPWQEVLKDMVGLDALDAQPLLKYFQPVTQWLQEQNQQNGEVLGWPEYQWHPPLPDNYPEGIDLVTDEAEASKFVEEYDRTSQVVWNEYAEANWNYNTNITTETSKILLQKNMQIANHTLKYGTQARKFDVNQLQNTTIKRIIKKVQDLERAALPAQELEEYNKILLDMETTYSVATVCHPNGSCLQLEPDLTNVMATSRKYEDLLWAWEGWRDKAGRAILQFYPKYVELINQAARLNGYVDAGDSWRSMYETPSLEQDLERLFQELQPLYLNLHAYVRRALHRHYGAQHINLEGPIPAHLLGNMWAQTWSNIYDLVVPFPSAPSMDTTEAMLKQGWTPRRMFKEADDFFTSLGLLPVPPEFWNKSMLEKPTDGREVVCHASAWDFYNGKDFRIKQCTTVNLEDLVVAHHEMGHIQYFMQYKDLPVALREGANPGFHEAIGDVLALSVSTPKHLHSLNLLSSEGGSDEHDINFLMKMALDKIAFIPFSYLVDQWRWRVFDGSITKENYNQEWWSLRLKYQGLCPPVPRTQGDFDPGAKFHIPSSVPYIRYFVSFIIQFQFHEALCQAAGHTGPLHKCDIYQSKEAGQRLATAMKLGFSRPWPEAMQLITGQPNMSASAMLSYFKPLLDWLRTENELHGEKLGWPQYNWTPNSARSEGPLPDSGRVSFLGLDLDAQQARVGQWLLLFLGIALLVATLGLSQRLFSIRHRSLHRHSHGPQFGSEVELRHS

Q: For `Cc1oc(C)c(S(N)(=O)=O)c1C(=O)O` [SFC, 2,5-dimethyl-4-sulfamoylfuran-3-carboxylic acid], which “Inhibition of IPM hydrolyzing activity of L1” value (L1) is on record?
A: did not inhibit

Q: And the “Inhibition of IPM hydrolyzing activity of SMB-1” value (SMB-1)?
A: did not inhibit

Q: What about the “Inhibitory effect against CMY-2 (class C)” value (CMY-2) of the same molecule?
A: nonexistent or insufficient

Q: What about the “Inhibitory effect on ACE” value [1] of the same molecule?
A: no inhibitory effect

Q: What about the MIC (E. coli DH5α/pBC-TMB-2; [12]) of the same molecule?
A: 0.5 µg/mL

Q: What about the MIC (E. coli DH5α/pBC-TMB-2; [13]) of the same molecule?
A: 0.125 µg/mL

Q: What about the MIC [2, 12] of the same molecule?
A: 2 µg/mL

Q: What about the MIC [2, 13] of the same molecule?
A: 2 µg/mL

Q: What about the MIC [3, 12] of the same molecule?
A: 2 µg/mL

Q: What about the MIC [3, 13] of the same molecule?
A: 1 µg/mL

Q: What about the MIC [4, 12] of the same molecule?
A: 4 µg/mL

Q: What about the MIC [4, 13] of the same molecule?
A: 2 µg/mL

Q: What about the MIC [5, 14] of the same molecule?
A: 32 µg/mL

Q: And the MIC [5, 15]?
A: 16 µg/mL

Q: What about the MIC [6, 14] of the same molecule?
A: 32 µg/mL

Q: What about the MIC [6, 15] of the same molecule?
A: 16 µg/mL

Q: And the “Reduction of MPM MIC50” value ([7]; 10 μg/ml SFC, IMP-producing Enterobacteriaceae)?
A: 128 fold

Q: And the “Isolates whose MPM MIC decreased to susceptible criteria (MIC ≤1 μg/ml)” value ([7]; addition of 10 μg/ml SFC)?
A: 16/19

Q: And the “Isolates whose MPM MIC decreased to susceptible criteria (MIC ≤1 μg/ml)” value ([7]; addition of 50 μg/ml SFC)?
A: 17/19

Q: And the LD50 at 7 days [8]?
A: > 1000 mg/kg

Q: What about the “50% lethal dose (LD50)” value (mice) of the same molecule?
A: 246 mg/kg of body weight

Q: And the “Ames test, mutagenicity” value [9]?
A: negative

Q: And the “Stability in human liver microsomes” value [10]?
A: did not lead to structural changes; also recorded: high stability

Q: And the “Mice rescued from death at the endpoint” value ([11]; MPM (0.2 mg/kg)-SFC (100 mg/kg) combination therapy, i.p., 7 days following infection)?
A: 90%

Q: What about the “Rescue of infected mice by monotherapy” value ([11]; SFC 100 mg/kg or MPM 0.2 mg/kg i.p. at 1 and 3 h after infection, within 48 h) of the same molecule?
A: failed to rescue mice
